US12686666B2, “Triazine compound salt, crystal form thereof, and production method therefor” (TANABE PHARMA CORPORATION, priority 2020, dated 2026)
Marks after values point to notes of the source that are not given here.

Key:
Format in all cases: physicochemical
[1] = Thermal stability evaluation (TG/DTA weight change); details: for Thermal stability, conclusion in words: did not show a significant weight change (Succinate Form A: at 25 to 148° C., melting point)
Method: Thermal stability was measured and evaluated by using a thermogravimetry/differential thermal analyzer TG/DTA7200 (SII NanoTechnology Inc.) under the following conditions. • Rate of temperature increase: 10° C./min • Range of temperature increase: 25 to 300° C. • Atmosphere: nitrogen 200 mL/min <Hygroscopicity or Deliquescency Evaluation>
Thermal stability was measured and evaluated by using a thermogravimetry/differential thermal analyzer TG/DTA7200 (SII NanoTechnology Inc.) under the following conditions • Rate of temperature increase: 10° C./min • Range of temperature increase: 30 to 300° C. • Atmosphere: nitrogen 200 mL/min • or • using a TGA/DSC1 thermogravimetric analyzer (manufactured by Mettler Toledo, STARe system) under the following conditions. • Rate of temperature increase: 10° C./min • Range of temperature increase: 25 to 300° C. • Atmosphere: nitrogen 50 mL/min <Hygroscopicity or Deliquescency Evaluation>

[2] = Chemical stability evaluation (storage 1 week, liquid chromatography peak area %); details: for Chemical stability, conclusion in words: did not show a significant increase of related substances
Method: Each about 1 mg of a sample stored at 60° C. (sealed) or 60° C./75% RH (open) for 1 week and an unstored sample (at the start of test) was dissolved into a mixed solution of acetonitrile/water (1:1) (5 mL) to obtain each sample solution. A test was carried out by liquid chromatographic method under the following conditions to measure each peak area (%).
Each peak area (%) was measured by using Waters ACQUITY UPLC under the following conditions. • Detector: Photodiode array (measurement wavelength: 239 nm) • Column: Waters ACQUITY BEH C18 (2.1 mm×100 mm, 1.7 μm) • Column temperature: constant temperature about 40° C. • Mobile phase: Solution A; water/TFA (2000:1), Solution B; Acetonitrile/TFA (2000:1) • Concentration gradient control: B % 2→100% (15 minutes) • Flow rate: 0.5 mL/min • Injection volume: 2 μL
Each sample was stored at 60° C. under a sealed condition and at 60° C. under 75% RH for 1 week, and an increase or decrease of related substance(s) after the storage was calculated by high-performance liquid chromatographic method on the basis of the area percentage of each peak. Also, the condition of each sample after the storage was observed.

[3] = Hygroscopicity or deliquescency evaluation (moisture adsorption, DVS); details: for Hygroscopicity or deliquescency, conclusion in words: from Table 5; for Hydration state (hydration stage in moisture adsorption): normal temperature, relative humidity of 10 to 95%
Method: Hygroscopicity or deliquescency was evaluated as follows by using a moisture adsorption measurement device DVS-1 or DVS-intrinsic (Surface Measurement Systems Limited). Each sample (about 5 mg) was placed into an aluminum plate of which the tare weight had been corrected in advance, and the plate was hung on the precision balance of said device to precisely measure the weight at the start of measurement. The humidity was changed in a stepwise manner in a chamber at 25° C., the weight change was recorded with time, and the equilibrium weight was calculated at each humidity. On the basis of the weight at a dried condition (0% RH), the weight change rate and hydration number at each humidity were calculated.
Hygroscopicity or deliquescency was evaluated as follows by using a moisture adsorption measurement device DVS-1 or DVS-intrinsic (Surface Measurement Systems Limited). Each sample was placed into a cell of which the tare weight had been corrected in advance, and the cell was hung on the precision balance of said device to precisely measure the weight at the start of measurement. The humidity was changed in a stepwise manner, the weight change was recorded with time, and the equilibrium weight was calculated at each humidity. On the basis of the weight of anhydride converted from the amount of water at a dried condition (0% RH) or at the start of measurement observed by an alternative method, the weight change rate at each humidity was calculated.

[4] = Table 5, change of related substances (peak area %) vs start
[5] = Table 5, stored 1 week at 60° C. sealed, change of related substances (peak area %) vs start
[6] = Table 5, 25° C., relative to weight at 0% RH
[7] = Table 10, increase or decrease of related substance(s), HPLC area percentage
[8] = Table 10, *1 with hydration stage

CC(=O)NC1CCC(NC(=O)CN2CCN(c3nncc(-c4ccc(C)cc4)n3)CC2)CC1.O=C(O)CC(O)(CC(=O)O)C(=O)O (stereo not shown) [Citrate Form A crystal]
Thermal stability TG: weight change ([1]; 25° C.-melting point): 2.2%
Thermal stability, conclusion in words [1]: excellent thermal stability
Chemical stability 60° C., 75% RH, 1 week (open) [2, 4]: 0.03%
Chemical stability 60° C. (sealed) [2, 5]: −0.03%
Chemical stability, conclusion in words [2]: excellent chemical stability
Hygroscopicity or Deliquescency Weight change at 90% RH [3, 6]: 7.6%

CC(=O)NC1CCC(NC(=O)CN2CCN(c3nncc(-c4ccc(C)cc4)n3)CC2)CC1.O=C(O)CO (stereo not shown) [Glycolate Form A crystal]
Thermal stability TG: weight change ([1]; 70° C.-melting point): 14.4%
Chemical stability 60° C., 75% RH, 1 week (open) [2, 4]: 0.02%
Chemical stability 60° C. (sealed) [2, 5]: 0.02%
Chemical stability, conclusion in words [2]: excellent chemical stability
Hygroscopicity or Deliquescency Weight change at 90% RH [3, 6]: 1.9%
Hygroscopicity or deliquescency, conclusion in words [3]: excellent in the reduced hygroscopicity or deliquescency

Br.Br.CC(=O)NC1CCC(NC(=O)CN2CCN(c3nncc(-c4ccc(C)cc4)n3)CC2)CC1 (stereo not shown) [Hydrobromide Form F crystal]
Thermal stability TG: weight change ([1]; Table 10, room temperature −200° C.): 4.8%
Chemical stability 60° C. (sealed) ([2]; Table 10, 1 week, increase or decrease of related substance(s), HPLC area percentage): 0.02%
Chemical stability 60° C., 75% RH, 1 week (open) [2, 7]: 0.12%
Hygroscopicity or Deliquescency Weight change at 90% RH [3, 8]: 3.5%*^1
Hydration state (hydration stage in moisture adsorption) [3]: hydrate

Br.CC(=O)NC1CCC(NC(=O)CN2CCN(c3nncc(-c4ccc(C)cc4)n3)CC2)CC1 (stereo not shown) [Hydrobromide Form N crystal]
Thermal stability TG: weight change ([1]; Table 10, 25-242° C.): 6.2%
Chemical stability 60° C., 75% RH, 1 week (open) [2, 7]: 0.00%
Hygroscopicity or Deliquescency Weight change at 90% RH [3, 8]: 7.2%*^1
Hydration state (hydration stage in moisture adsorption) [3]: hydrate

CC(=O)NC1CCC(NC(=O)CN2CCN(c3nncc(-c4ccc(C)cc4)n3)CC2)CC1.Cl (stereo not shown) [Hydrochloride Form A crystal]
Thermal stability TG: weight change ([1]; 25-160° C.): 0.4%
Thermal stability, conclusion in words [1]: excellent thermal stability
Chemical stability 60° C., 75% RH, 1 week (open) [2, 4]: −0.01%
Chemical stability 60° C. (sealed) [2, 5]: −0.01%
Chemical stability, conclusion in words [2]: excellent chemical stability
Hygroscopicity or Deliquescency Weight change at 90% RH [3, 6]: 7.5%

CC(=O)NC1CCC(NC(=O)CN2CCN(c3nncc(-c4ccc(C)cc4)n3)CC2)CC1.Cl.Cl (stereo not shown) [Hydrochloride Form B crystal]
Hygroscopicity or Deliquescency Weight change at 90% RH [3, 6]: 5.5%

CC(=O)NC1CCC(NC(=O)CN2CCN(c3nncc(-c4ccc(C)cc4)n3)CC2)CC1.O=C(O)CC(O)C(=O)O (stereo not shown) [Malate Form A crystal]
Thermal stability TG: weight change ([1]; 25-280° C.): 21.2%
Hygroscopicity or Deliquescency Weight change at 90% RH [3, 6]: 15%

CC(=O)NC1CCC(NC(=O)CN2CCN(c3nncc(-c4ccc(C)cc4)n3)CC2)CC1.O=C(O)C=CC(=O)O (stereo not shown) [Maleate Form A crystal]
Thermal stability, conclusion in words [1]: excellent thermal stability
Thermal stability TG: weight change ([1]; no temperature range printed): 0.0%
Chemical stability 60° C., 75% RH, 1 week (open) [2, 4]: 0.12%
Chemical stability 60° C. (sealed) [2, 5]: 0.01%
Chemical stability, conclusion in words [2]: excellent chemical stability
Hygroscopicity or Deliquescency Weight change at 90% RH [3, 6]: 22%

CC(=O)NC1CCC(NC(=O)CN2CCN(c3nncc(-c4ccc(C)cc4)n3)CC2)CC1.O=C(O)C=CC(=O)O (stereo not shown) [Maleate Form B crystal]
Thermal stability TG: weight change ([1]; 25-90° C.): 0.4%
Thermal stability TG: weight change ([1]; 120-260° C.): 17.6%
Thermal stability, conclusion in words [1]: excellent thermal stability
Chemical stability 60° C., 75% RH, 1 week (open) [2, 4]: 9.66%
Condition of the sample after storage at 60° C., 75% RH, 1 week (open) ([2]; Table 5, remark in words under the value (glycolate: free body was observed at 60° C., 75% RH, 1 week)): (deliquescent)
Chemical stability 60° C. (sealed) [2, 5]: 0.02%
Hygroscopicity or Deliquescency Weight change at 90% RH [3, 6]: 7.5%

CC(=O)NC1CCC(NC(=O)CN2CCN(c3nncc(-c4ccc(C)cc4)n3)CC2)CC1.CS(=O)(=O)O (stereo not shown) [Mesilate Form A crystal]
Thermal stability TG: weight change ([1]; 120° C.): 0.8%
Thermal stability, conclusion in words [1]: excellent thermal stability
Chemical stability 60° C., 75% RH, 1 week (open) [2, 4]: 5.73%
Chemical stability 60° C. (sealed) [2, 5]: −0.13%
Hygroscopicity or Deliquescency Weight change at 90% RH [3, 6]: 17%

CC(=O)NC1CCC(NC(=O)CN2CCN(c3nncc(-c4ccc(C)cc4)n3)CC2)CC1.O=C(O)CCC(=O)O (stereo not shown) [Succinate Form A crystal]
Thermal stability TG: weight change ([1]; 25-148° C.): 0.0%
Thermal stability TG: weight change ([1]; 148-210° C.): 23.7%
Thermal stability, conclusion in words [1]: excellent thermal stability
Chemical stability 60° C., 75% RH, 1 week (open) [2, 4]: 0.02%
Chemical stability 60° C. (sealed) [2, 5]: 0.04%
Chemical stability, conclusion in words [2]: excellent chemical stability
Hygroscopicity or Deliquescency Weight change at 90% RH [3, 6]: 0.4%
Hygroscopicity or deliquescency, conclusion in words [3]: excellent in the reduced hygroscopicity or deliquescency

CC(=O)NC1CCC(NC(=O)CN2CCN(c3nncc(-c4ccc(C)cc4)n3)CC2)CC1.CC(=O)NC1CCC(NC(=O)CN2CCN(c3nncc(-c4ccc(C)cc4)n3)CC2)CC1.O=S(=O)(O)O.O=S(=O)(O)O.O=S(=O)(O)O.O=S(=O)(O)O.O=S(=O)(O)O (stereo not shown) [Sulfate Form A crystal]
Hygroscopicity or Deliquescency Weight change at 90% RH [3, 6]: 8%

CC(=O)NC1CCC(NC(=O)CN2CCN(c3nncc(-c4ccc(C)cc4)n3)CC2)CC1.CC(=O)NC1CCC(NC(=O)CN2CCN(c3nncc(-c4ccc(C)cc4)n3)CC2)CC1.O.O.O.O.O=S(=O)(O)O.O=S(=O)(O)O.O=S(=O)(O)O.O=S(=O)(O)O.O=S(=O)(O)O (stereo not shown) [Sulfate Form B crystal]
Thermal stability TG: weight change ([1]; 25-93° C.): 4.3%
Thermal stability TG: weight change ([1]; 93-105° C.): 1.6%
Thermal stability, conclusion in words [1]: excellent thermal stability
Chemical stability 60° C., 75% RH, 1 week (open) [2, 4]: 0.13%
Chemical stability 60° C. (sealed) [2, 5]: 0%
Chemical stability, conclusion in words [2]: excellent chemical stability
Hygroscopicity or Deliquescency Weight change at 90% RH [3, 6]: 5%*^1
Hygroscopicity or deliquescency, conclusion in words [3]: excellent in the reduced hygroscopicity or deliquescency
Hydration state (hydration stage in moisture adsorption) [3]: hydrate

CC(=O)NC1CCC(NC(=O)CN2CCN(c3nncc(-c4ccc(C)cc4)n3)CC2)CC1.Cc1ccc(S(=O)(=O)O)cc1 (stereo not shown) [Tosilate Form B crystal]
Thermal stability TG: weight change ([1]; 25° C.-melting point): 0.7%
Thermal stability, conclusion in words [1]: excellent thermal stability
Chemical stability 60° C., 75% RH, 1 week (open) [2, 4]: −0.05%
Chemical stability 60° C. (sealed) [2, 5]: −0.07%
Chemical stability, conclusion in words [2]: excellent chemical stability
Hygroscopicity or Deliquescency Weight change at 90% RH [3, 6]: 7.5%
Hygroscopicity or deliquescency, conclusion in words [3]: excellent in the reduced hygroscopicity or deliquescency
